Assay [1] addresses human vasopressin V1a receptor (Homo sapiens, UniProt P37288). Briefly: Vasopressin V1a receptor binding assay (125I-AVP displacement, CHO-K1 membranes). Conditions: selectivity quotient, human V1a vs human V1b receptor binding.
Assay [2] deals with T1, human vasopressin V1b receptor (Homo sapiens, UniProt P47901).
T1 sequence (P47901 1-424): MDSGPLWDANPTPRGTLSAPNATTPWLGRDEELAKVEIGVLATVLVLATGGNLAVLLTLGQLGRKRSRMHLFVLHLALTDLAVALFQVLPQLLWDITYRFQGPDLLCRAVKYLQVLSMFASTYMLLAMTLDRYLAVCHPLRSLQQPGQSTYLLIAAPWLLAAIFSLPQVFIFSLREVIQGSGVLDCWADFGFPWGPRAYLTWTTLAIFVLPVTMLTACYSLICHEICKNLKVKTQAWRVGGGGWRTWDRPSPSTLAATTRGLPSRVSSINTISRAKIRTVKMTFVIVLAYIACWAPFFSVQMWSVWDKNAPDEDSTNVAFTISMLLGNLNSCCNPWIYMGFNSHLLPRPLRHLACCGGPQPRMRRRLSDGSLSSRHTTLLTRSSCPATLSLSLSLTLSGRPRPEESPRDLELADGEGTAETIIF
Briefly: biochemical.

human vasopressin V1a receptor, sequence (P37288 whole entry): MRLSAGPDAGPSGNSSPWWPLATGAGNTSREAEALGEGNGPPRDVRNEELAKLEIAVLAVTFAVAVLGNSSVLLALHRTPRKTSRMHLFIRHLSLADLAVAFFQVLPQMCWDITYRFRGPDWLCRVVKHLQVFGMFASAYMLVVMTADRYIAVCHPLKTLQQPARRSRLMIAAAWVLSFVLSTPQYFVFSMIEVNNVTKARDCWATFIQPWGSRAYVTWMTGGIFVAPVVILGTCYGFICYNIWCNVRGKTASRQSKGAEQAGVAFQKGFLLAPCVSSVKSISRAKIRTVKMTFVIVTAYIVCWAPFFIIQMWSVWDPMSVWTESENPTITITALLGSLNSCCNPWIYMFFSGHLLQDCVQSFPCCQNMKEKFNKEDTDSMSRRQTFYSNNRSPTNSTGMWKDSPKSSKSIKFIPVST

With `CCOc1ncccc1[C@]1(NC(=O)N2CC(N3CCC(N4CCC(O)CC4)CC3)C2)C(=O)N(S(=O)(=O)c2ccc(OC)cc2OC)c2ccc(C#N)cc21` [Example 44, (S)—N-(5-Cyano-1-((2,4-dimethoxyphenyl)sulfonyl)-3-(2-ethoxypyridin-3-yl)-2-oxoindolin-3-yl)-3-(4-hydroxy-[1,4′-bipiperidin]-1′-yl)azetidine-1-carboxamide], the “Ki(h-V1a)/Ki(h-V1b)” value in assay [1] is “+++ (>75)”. The same compound displayed a Ki in assay [2] below 1 nM.
On the same counts, the results for `COc1ccc(S(=O)(=O)N2C(=O)[C@@](NC(=O)N3CC(N4CCC(N5CCOCC5)CC4)C3)(c3cc(OC)ccc3OC)c3cc(C#N)ccc32)c(OC)c1` [Example 45, (S)—N-(5-Cyano-3-(2,5-dimethoxyphenyl)-1-((2,4-dimethoxyphenyl)sulfonyl)-2-oxoindolin-3-yl)-3-(4-morpholinopiperidin-1-yl)azetidine-1-carboxamide] are “+ (10-<25)” and below 1 nM.
Take `COc1ccc(S(=O)(=O)N2C(=O)[C@@](NC(=O)N3CC(N4CCC(N(C)C5COC5)CC4)C3)(c3cc(OC)ccc3OC)c3cc(C#N)ccc32)c(OC)c1` [Example 46, (S)—N-(5-Cyano-3-(2,5-dimethoxyphenyl)-1-((2,4-dimethoxyphenyl)sulfonyl)-2-oxoindolin-3-yl)-3-(4-(methyl(oxetan-3-yl)amino)piperidin-1-yl)azetidine-1-carboxamide]: the “Ki(h-V1a)/Ki(h-V1b)” value in assay [1] is “++ (25-75)”. Also, the Ki in assay [2] was below 1 nM.

As a reminder, the Ki is a dissociation constant, usually derived from enzyme kinetics or from competition with a known ligand.

These data come from patent US9840495B2, “Oxindole derivatives carrying a piperidyl-substituted azetidinyl substituent and use thereof for treating vasopressine-related diseases” (AbbVie Deutschland GmbH & Co. KG, priority 2013, dated 2017).
